{"source": "patent US10064909B2", "about": "“Compositions and methods for chronic use of a weight-gaining compound” (priority 2015, dated 2018)", "type_in_all_cases": "in vivo", "key": {"[1]": {"test": "Safety of daily capromorelin in cats for 91 days at an oral dose of 6 mg/kg", "protocol": "This controlled study included two treatment groups with 4 adult cats receiving placebo (Group 1) and 8 adult cats receiving capromorelin (Formulation #9, as described above) (Group 2) for 91 consecutive days. All cats were offered food daily for a 6-hour period following an 11-day acclimation phase. All cats were weighed on Days −11, −1, 1, 14, 30, 59, 75, and 91. On Days 1 through 91, animals were orally administered capromorelin once daily via syringe at dose levels of 0 or 6 mg/kg. At one hour post-dose, all cats were offered food for a 6-hour period. Variables of interest included weight gain/loss, food consumption, clinical pathology, and serum analysis of IGF-1 and GH.\nOn Days 1, 30, 59, and 91, blood samples were collected prior to daily dose administration and at 8 hours post-dose and processed to serum for analysis of IGF-1 and GH levels. Hematology parameters included white blood count (WBC), hemoglobin (HgB), red blood count (RBC), platelet count (PLT), platelet morphology, hematocrit (HCT), mean corpuscular volume (MCV), mean corpuscular hemoglobin (MCH), WBC differential, RBC and WBC morphology, mean corpuscular hemoglobin concentration (MCHC), reticulocytes, and blood smear. Serum chemistry parameters measured included albumin (ALB), creatine kinase (CK), albumin/globulin ratio (A\\G), globulin (GLOB), alkaline phosphatase (ALP), glucose (GLU), fructosamine, alanine aminotransferase (ALT), blood urea nitrogen (BUN), phosphorus (PHOS), calcium (Ca), potassium (K), chloride (Cl), sodium (Na), cholesterol (CHOL), total protein (TP), creatinine (CRE), total bilirubin (TBIL), BUN/creatinine ratio, and sodium/potassium ratio.\nUrine samples were collected via cystocentesis and/or by collection in pans/trays from all cats for urinalysis. Before blood collection, all animals were fasted at least 8 hours. Urinalysis parameters measured included specific gravity (SG), pH (PH), color (COL), clarity (CLAR), blood (BLO), protein (UPRO), bilirubin (UBIL), glucose (UGLU), ketones (KET), and the microscopic examination of the sediments for RBC/hpf, WBC/hpf, bacteria (BACT), epithelial cells, mucus, casts, and crystals."}, "[2]": {"test": "Cat dose titration laboratory study (21 days): food consumption and bodyweight", "conditions": "cats; for Mean % Change (±SD) in Food Consumption Over 21 Days: Day 1-21 vs Days -3 to -1, listed as AT-002, L-tartrate; for Mean % Change (±SD) in Bodyweight Over 21 Days: Day 1 to Day 22", "protocol": "This study tested the effectiveness of an oral formulation of AT-002 in laboratory cats and to select a dose that would cause increased food intake and weight gain. This study investigated the effects of a capromorelin oral solution in cats dosed at 1 mg/kg, 2 mg/kg or 3 mg/kg compared to placebo (n=8/group) for 21 days. Food consumption was measured each day from Day −10 through Day 21. For each cat, baseline food consumption was calculated as the average of Days −3, −2 and −1. The percent change from baseline to treatment period was calculated as 100× (treatment period minus baseline)/baseline. Bodyweight was measured on Day 1, Day 8, Day 15 and Day 22. Baseline bodyweight was defined as the value collected on Day 1 (prior to treatment)."}, "[3]": {"test": "Pilot clinical field study in cats with CKD (Example 11)", "conditions": "for mean bodyweight change (±SEM): 2 mg/kg oral once daily", "protocol": "This placebo controlled, masked non-GCP study was to confirm the safety and effectiveness (weight gain) of AT-002 (capromorelin) at a dose of 2 mg/kg administered once daily for 90 days in cats with CKD and a history of losing weight.\nA total of 42 cats were screened at 7 veterinary clinics. Of these 42 cats, 1 was a screen failure, resulting in 41 cats being enrolled and randomized to 1 of 2 treatments, capromorelin oral solution (AT-002) or placebo (CP). Eligible study candidates included cats that presented to the veterinary clinic with a diagnosis of CKD (IRIS stages II, III or IV) and a documented decrease in bodyweight over the previous 6 months. Test articles were provided as flavored oral solutions and were administered orally once daily beginning on Day 0 for 90±3 days, AT-002 at a dose rate of 2 mg/kg and CP at the equivalent dose volume to AT-002. The Investigator, study staff and cat Owners were masked to treatment. Cats were re-evaluated at the clinic on Day 14±1, Day 30±2, Day 60±3 and Day 90±3.\nThe key variable for the determination of effectiveness was bodyweight. Other effectiveness variables measured included body condition score, muscle condition score, quality of life assessments (unvalidated) and owner appetite assessments (unvalidated). Safety was assessed by physical examinations, clinical pathology testing (hematology and serum chemistry), urinalysis, serum IGF-1 levels and adverse event monitoring."}, "[4]": {"conditions": "2 mg/kg, 90 days, PPP1, not statistically significant vs placebo"}}, "note": "Several values for one entry are separate records, joined by “and”; a condition that tells them apart may be missing. Identical values can stand only once."}
{"smiles": "CN1N=C2CCN(C(=O)[C@@H](COCc3ccccc3)NC(=O)C(C)(C)N)C[C@@]2(Cc2ccccc2)C1=O.O=C(O)C(O)C(O)C(=O)O", "note": "[capromorelin, N-[(2R)-1-[(3aR)-2-methyl-3-oxo-3a-(phenylmethyl)-6,7-dihydro-4H-pyrazolo[4,3-c]pyridin-5-yl]-1-oxo-3-(phenylmethoxy)propan-2-yl]-2-amino-2-methylpropanamide L-tartrate]", "values": [{"measurement": "resolution of post-dose clinical observations", "setting": "[1]; 6 mg/kg", "result": "usually resolved within five minutes"}, {"measurement": "mean rate of bodyweight change", "setting": "[1]; 6 mg/kg oral once daily, 91 days", "result": 0.0086}, {"measurement": "mean bodyweight change from baseline (Day 1)", "setting": "[1]; 6 mg/kg oral once daily, Day 14", "result": 0.26, "unit": "kg"}, {"measurement": "mean bodyweight change from baseline (Day 1)", "setting": "[1]; 6 mg/kg oral once daily, Day 30", "result": 0.46, "unit": "kg"}, {"measurement": "mean bodyweight change from baseline (Day 1)", "setting": "[1]; 6 mg/kg oral once daily, Day 59", "result": 0.64, "unit": "kg"}, {"measurement": "mean bodyweight change from baseline (Day 1)", "setting": "[1]; 6 mg/kg oral once daily, Day 75", "result": 0.73, "unit": "kg"}, {"measurement": "mean bodyweight change from baseline (Day 1)", "setting": "[1]; 6 mg/kg oral once daily, Day 91", "result": 0.80, "unit": "kg"}, {"measurement": "food consumption, mean change from baseline", "setting": "[1]; 6 mg/kg oral once daily, baseline average of Days -3 through -1", "result": 14.95, "unit": "grams"}, {"measurement": "mean rate of bodyweight change, factor vs placebo", "setting": "[1]; 6 mg/kg, 0.0086 vs 0.0010 for placebo", "result": 8.6}, {"measurement": "chronic hyperglycemia", "setting": "[1]; 6 mg/kg, 91 days", "result": "no chronic hyperglycemia"}, {"measurement": "food consumption, mean rate of change", "setting": "[1]; 6 mg/kg, a rate of one = one more gram of food consumed each day", "result": 1.2396}, {"measurement": "creatinine levels", "setting": "[1]; 6 mg/kg, acclimation to Day 91, reference range 0.6 to 2.4 mg/dL", "result": "within the normal reference range"}, {"measurement": "BUN levels", "setting": "[1]; 6 mg/kg, acclimation to Day 91, reference range 14 to 36 mg/dL", "result": "within the normal reference range"}, {"measurement": "serum glucose levels", "setting": "[1]; 6 mg/kg, compared to the placebo group", "result": "increased"}, {"measurement": "serum fructosamine", "setting": "[1]; 6 mg/kg, reference range 191 to 349 μmol/L", "result": "No fructosamine values exceeded the normal reference range"}, {"measurement": "most common clinical observations", "setting": "[1]; 6 mg/kg, seen immediately post-dose", "result": "hypersalivation (ptyalism), lip smacking, emesis, and head shaking"}, {"measurement": "Mean % Change (±SD) in Food Consumption Over 21 Days", "setting": "[2]; 1 mg/kg, 1 mg/kg", "result": "25.3% and 25.32 ± 16.70%"}, {"measurement": "Mean % Change (±SD) in Bodyweight Over 21 Days", "setting": "[2]; 1 mg/kg", "result": "5.41 ± 4.11", "unit": "%"}, {"measurement": "Mean % Change (±SD) in Food Consumption Over 21 Days", "setting": "[2]; 2 mg/kg, 2 mg/kg", "result": "45.7% and 45.67 ± 24.39%"}, {"measurement": "Mean % Change (±SD) in Bodyweight Over 21 Days", "setting": "[2]; 2 mg/kg", "result": "6.61 ± 5.05", "unit": "%"}, {"measurement": "Mean % Change (±SD) in Food Consumption Over 21 Days", "setting": "[2]; 3 mg/kg, 3 mg/kg", "result": "29.6% and 29.59 ± 13.65%"}, {"measurement": "Mean % Change (±SD) in Bodyweight Over 21 Days", "setting": "[2]; 3 mg/kg", "result": "3.92 ± 5.15", "unit": "%"}, {"measurement": "mean body condition score (scale of 1 to 9)", "setting": "[3]; [4]", "result": "increased slightly"}, {"measurement": "mean muscle condition score (scale of 0 to 3)", "setting": "[3]; [4]", "result": "increased"}, {"measurement": "% Success, success defined as greater than 0% gain", "setting": "[3]; 2 mg/kg, Day 14, PPP2", "result": 86.7, "unit": "%"}, {"measurement": "% Success, success defined as maintenance or gain", "setting": "[3]; 2 mg/kg, Day 14, PPP2", "result": 86.7, "unit": "%"}, {"measurement": "Body weight successes per group, success defined as greater than 0% gain", "setting": "[3]; 2 mg/kg, Day 14, PPP2", "result": "13/15"}, {"measurement": "Bodyweight successes per group, success defined as maintenance or gain", "setting": "[3]; 2 mg/kg, Day 14, PPP2", "result": "13/15"}, {"measurement": "% Success, success defined as greater than 0% gain", "setting": "[3]; 2 mg/kg, Day 30, PPP2", "result": 86.7, "unit": "%"}, {"measurement": "% Success, success defined as maintenance or gain", "setting": "[3]; 2 mg/kg, Day 30, PPP2", "result": 93.3, "unit": "%"}, {"measurement": "Body weight successes per group, success defined as greater than 0% gain", "setting": "[3]; 2 mg/kg, Day 30, PPP2", "result": "13/15"}, {"measurement": "Bodyweight successes per group, success defined as maintenance or gain", "setting": "[3]; 2 mg/kg, Day 30, PPP2", "result": "14/15"}, {"measurement": "% Success, success defined as greater than 0% gain", "setting": "[3]; 2 mg/kg, Day 60, PPP2", "result": 66.7, "unit": "%"}, {"measurement": "% Success, success defined as maintenance or gain", "setting": "[3]; 2 mg/kg, Day 60, PPP2", "result": 80.0, "unit": "%"}, {"measurement": "Body weight successes per group, success defined as greater than 0% gain", "setting": "[3]; 2 mg/kg, Day 60, PPP2", "result": "10/15"}, {"measurement": "Bodyweight successes per group, success defined as maintenance or gain", "setting": "[3]; 2 mg/kg, Day 60, PPP2", "result": "12/15"}, {"measurement": "change in mean descriptive quality of life monthly score (±SEM) from Day 0", "setting": "[3]; 2 mg/kg, Day 90", "result": "0.00±0.11"}, {"measurement": "% Success, success defined as greater than 0% gain", "setting": "[3]; 2 mg/kg, Day 90, PPP2", "result": 73.3, "unit": "%"}, {"measurement": "% Success, success defined as maintenance or gain", "setting": "[3]; 2 mg/kg, Day 90, PPP2", "result": 80.0, "unit": "%"}, {"measurement": "Body weight successes per group, success defined as greater than 0% gain", "setting": "[3]; 2 mg/kg, Day 90, PPP2", "result": "11/15"}, {"measurement": "Bodyweight successes per group, success defined as maintenance or gain", "setting": "[3]; 2 mg/kg, Day 90, PPP2", "result": "12/15"}, {"measurement": "mean descriptive owner appetite assessment monthly scores", "setting": "[3]; 2 mg/kg, compared to placebo, Days 30, 60, 90, PPP1", "result": "did not change significantly"}, {"measurement": "mean descriptive quality of life monthly score (±SEM), scale of 1 to 5", "setting": "[3]; capromorelin group, Day 0 (baseline)", "result": "3.85±0.19"}, {"measurement": "tolerability", "setting": "[3]; cats with CKD, 2 mg/kg once daily, 90 days", "result": "well-tolerated"}, {"measurement": "mean bodyweight change (±SEM)", "setting": "[3]; cats with CKD, Day 14, n = 13, PPP1", "result": "2.93% ± 0.70%"}, {"measurement": "mean bodyweight change (±SEM)", "setting": "[3]; cats with CKD, Day 30, n = 13, PPP1, L-tartrate, 2 mg/kg", "result": "3.86%±0.85%"}, {"measurement": "mean bodyweight change (±SEM)", "setting": "[3]; cats with CKD, Day 30, n = 13, PPP1, listed as Capromorelin, L-tartrate, 2 mg/kg", "result": "3.86% ± 0.85%"}, {"measurement": "mean bodyweight change (±SEM)", "setting": "[3]; cats with CKD, Day 60, n = 13, PPP1, L-tartrate, 2 mg/kg", "result": "4.06%±1.42%"}, {"measurement": "mean bodyweight change (±SEM)", "setting": "[3]; cats with CKD, Day 60, n = 13, PPP1, listed as Capromorelin, L-tartrate, 2 mg/kg", "result": "4.06% ± 1.42%"}, {"measurement": "mean bodyweight change (±SEM)", "setting": "[3]; cats with CKD, Day 90, n = 13, PPP1, L-tartrate, 2 mg/kg", "result": "3.59%±1.59%"}, {"measurement": "mean bodyweight change (±SEM)", "setting": "[3]; cats with CKD, Day 90, n = 13, PPP1, listed as Capromorelin, L-tartrate, 2 mg/kg", "result": "3.59% ± 1.59%"}]}
